{"source": "patent US9944989B2", "about": "“Micrornas as new therapeutic targets for the prevention and/or treatment of retinopathy” (RUSH UNIVERSITY MEDICAL CENTER, priority 2010, dated 2018)", "key": {"NF-κB [1]": {"test_system": "NF-κB", "experiment": "miR-146a expression (qRT-PCR) in rat RECs (TR-iBRB2) treated with IL-1β or TNFα, with or without Bay11-7082", "assay_type": "cell-based", "conditions": "for miR-146a expression: rat RECs (TR-iBRB2), 10 ng/ml, four hours and 24 hours after treatment", "method": "In diabetic retinas, hyperglycemia-induced increased production of ROS and proinflammatory cytokines work in concert to activate NF-κB in RECs. Both IL-1β and TNF-α are shown to activate NF-κB in RECs. Upregulation of miR-146a is a result of NF-κB activation. Rat RECs (the TR-iBRB2 cells) were treated with IL-1β (10 ng/ml) and TNF-α (10 ng/ml). […] The extent of upregulation of miR-146a was further increased from 4-hour to 24-hour treatments. […] It is noteworthy that there is a moderate, but significant increased expression of miR-146a by IL-1β in the presence of Bay11-7082, compared to non-treated negative controls.\nQuantitative (q)RT-PCR. qRT-PCR analysis of miRNAs was performed using TaqMan microRNA Assays according to the manufacturer's protocol (Applied Biosystems). Approximately 8 ng of total RNA was used for each reaction. snRNA U6 was used for normalization control. qRT-PCR analysis on mRNAs of IRAK1, TRAF6, ICAM-1, and MCP-1 was performed using the QuantiTect Primer Assay with QuantiFast SYBR Green RT-PCR Kit (Qiagen, Valencia, Calif.) ˜10 ng total RNA was used in each reaction. 18S rRNA was amplified as normalization control. All data are expressed as mean±SEM. Student's t-test was used to determine significance (p<0.05).\n(§1) Rat REC culture and treatment with proinflammatory factors. Rat RECs—the Transgenic-inner Blood-Retinal Barrier (Tr-iBRB) cells were kindly provided by Drs. Tetsuya Terasaki, Tohoku University, and Ken-ichi Hosoya, University of Toyama, Japan. The Tr-iBRB cells were derived from RECs of transgenic rats harboring the temperature-sensitive SV40 large T-antigen (tsA58Tg rats). At 33° C., they are immortalized and proliferate because of the expression of large T-antigen. At 37° C., they stop proliferation due to loss of large T-antigen and differentiate into authentic retinal ECs, which have spindle fiber shapes, with typical endothelial and REC-specific markers and endothelial properties and REC-specific functions. iTr-iBRB cells were expanded at 33° C. on collagen-coated (50 μg/ml) plates in complete EC culture medium (DMEM with 70 mg/L benzylpenicillin potassium, 100 mg/L streptomycin sulfate, 10% heat-inactivated FBS and endothelial-cell growth factor (ECGF) (1:100, Sigma). Glucose concentration in the medium was 5.5 mM. Approximately 100,000 cells/60 mm plate were grown in complete medium at 37° C. for 48 hours. Cells were serum starved in DMEM+0.2% FBS for 16 hours before treatment of IL-1β (10 ng/ml, Sigma), TNFα (10 ng/ml, Sigma), or NF-κB inhibitor, Bay11-7082 (3 μM. Calbiochem) for 4 or 24 hours. Subsequently, the cells were harvested for total RNA, protein lysate preparation, or immunofluorescence."}, "NF-κB p65": {"test_system": "NF-κB p65", "experiment": "NF-κB activation by immunofluorescence of p65 subunit in rat RECs", "assay_type": "cell-based", "conditions": "IL-1β or TNFα 10 ng/ml, 30 minutes after treatment", "method": "as §1\nDetection of NF-κB activation by immunofluorescence of p65 subunit. 30 min following cytokine treatment, cells were fixed with 4% paraformaldehyde for 20 min. After blocking with 10% normal donkey serum (NDS) in PBS for 1 hour at room temperature, cells were incubated with anti-p65 antibody (Santa Cruz) at 4° C. overnight. Cells were incubated in Alexa fluor-conjugated secondary antibody (1:400) in 3% NDS. Nuclei of the cells were labeled with Hoechst nuclear dye (1:500). Subsequently, the cells were observed under an Axioplan2 fluorescent microscope (Zeiss)."}, "[2]": {"test_system": "human retinal endothelial cells (HRECs)", "experiment": "Transendothelial electrical resistance (TEER) assay in HRECs", "assay_type": "cell-based", "method": "Transendothelial electrical resistance assay: ECs are grown as a monolayer on small gold electrodes. The transendothelial electrical resistance, which reflects endothelial barrier function and permeability, is measured using the Electric Cell-Substrate Impedance Sensor (ECIS) system.\nTransendothelial electrical resistance (TEER) assay. HRECs were plated and grew as a monolayer on fibronectin-coated Electric Cell-Substrate Impedance Sensor (ECIS) electrode arrays (Applied Biophysics). 24 hours after transfection with miR-146a mimics, or negative control oligo duplex with scrambled sequences, the cells were treated with IL-1β (10 ng/ml). TEER was recorded for 20 hours before and 24 hours after addition of IL-1β using the ECIS system (Applied Biophysics) (Qiao et al., 2003, 2006; Lum et al., 2003, 2001). When Bay11-7082 was used, HRECs was incubated with Bay11-7082 ([…]) (Sigma) for 30 minutes prior to IL-1β treatment."}, "NF-κB [3]": {"test_system": "NF-κB", "experiment": "Thrombin-induced miR-146a/b expression (qRT-PCR) in HRECs, with or without Bay11-7082", "assay_type": "cell-based, human", "description": "miR-146 is a NF-κB-responsive miRNA, and can be induced by IL-1R/TLR mediated NF-κB activation. GPCR-mediated NF-κB activation also induces the expression of miR-146.\nUpregulation of miR-146a/b by thrombin treatment is a result of NF-κB activation.\n(§2) Cell culture and treatment. Primary Human Retinal Endothelial Cells (HRECs) (Passage 3-6) and HEK293 cells were purchased from Applied Cell Biology Res Institute (Kirkland, Wash.) and American Type Culture Collection (ATCC), respectively. HRECs were maintained in EGM2-MV media with 5% of FBS (Lonza) in flasks coated with attachment factor (Invitrogen) or plates coated with fibronectin (Sigma). For thrombin treatment, HRECs were serum starved in EGM2-MV media with 1% FBS overnight, and then treated with thrombin (5 U/ml) (Sigma. Cat. T4393) for 5-8 hours, followed by RNA harvesting, leukocyte adhesion and other assays; for IL-1β treatment, after overnight serum starvation, HRECs was incubated with 10 ng/ml IL-1β (Sigma) for 4 hours. When NF-κB specific inhibitor Bay11-7082 was used, HRECs was incubated with Bay11-7082 (3 μM) (Sigma) for 30 minutes prior to treatment with either thrombin or IL-1β.\nRNA preparation and quantitative RT-PCR. Total RNA was prepared using miRVana miRNA isolation kit (Ambion) (Kovacs et al., 2011). qRT-PCR of miRNAs was performed using TaqMan microRNA Assays (Applied Biosystems), with snRNA U6 as normalization control. qRT-PCR of mRNAs of was performed using QuantiTect Primer Assays and QuantiFast SYBR Green RT-PCR Kit (Qiagen), with 18s rRNA as normalization control. Two tailed t test was used to determine significance of differences."}, "miRNAs in the vitreous": {"test_system": "miRNAs in the vitreous", "experiment": "miRNA expression profiling (TaqMan rodent miRNA microarray) of the vitreous of STZ-induced diabetic and normal control rats", "set-up": "species or system rat", "conditions": "two weeks after the onset of diabetes, average delta Ct", "method": "Isolation of vitreous RNA from STZ-induced diabetic and normal control rats: 2 weeks after STZ-induced diabetes, 3 diabetic and 3 normal control rats were sacrificed and their eyeballs harvested. In cold PBS, the eyeballs were dissected to collect the vitreous bodies, the retinas and the lens, total RNA was prepared using the mirVana miRNA isolation kit (Ambion). The yield of total RNA from vitreous body was ˜764 ng and 1125 ng total RNA/vitreous of control and diabetic rats, respectively. […]\nmiRNA microarray assays and data analyses. […] Three independent sets of miRNA profiling were performed for each experimental condition Amplification data were created by the SDS2.3 program (Applied Biosystems) and further analyzed using RQ Manager software (Applied Biosystems) and StatMiner v. […] There were three replicate assays for each miRNA on the array. miRNAs with Ct<40 in at least two out of the three replicates were accepted as “detected”. […] Normalized expression level of each miRNA was calculated as DCt or ΔCt=Ct(miRNA)-Ct(snRNA U6). The average DCt from three microarray assays was calculated as the relative expression level of each miRNA. The differential expression of each miRNA from samples of diabetic rats and normal controls was calculated as: DDCt or Δ(ΔCt)=Ave DCt (diabetic)—Ave DCt (control). Fold of change was calculated as 2^−Δ(ΔCt). […]"}, "NF-κB activation": {"test_system": "NF-κB activation", "experiment": "Thrombin-induced NF-κB downstream genes (ICAM-1, VCAM-1, MCP1) by qRT-PCR in HRECs", "assay_type": "cell-based, human", "conditions": "thrombin treatment", "method": "Thrombin-dependent NF-κB activation is mediated by the CARD10-Bc110-MALT1 signalosome. If miR-146 targets CARD10, one of the key components of the signalosome of the GPCR-mediated NF-κB activation pathway, miR-146 should have an inhibitory effect on GPCR-mediated NF-κB activation in HRECs. HRECs were transfected with miR-146a mimic or negative control oligos with scrambled sequences; 24 hour after the transfection, the cells were treated with thrombin.\nTo determine whether miR-146's inhibition on thrombin-mediated NF-κB activation is mediated by its repression on CARD10, HRECs were transfected with human CARD10-expressing constructs (Genecopoeia) before miR-146a mimic transfection and thrombin treatment.\nas §2\nmiR-146a mimic, anti-miR-146a and plasmid transfection. […]\nRNA preparation and quantitative RT-PCR. Total RNA was prepared using miRVana miRNA isolation kit (Ambion) (Kovacs et al., 2011). qRT-PCR of miRNAs was performed using TaqMan microRNA Assays (Applied Biosystems), with snRNA U6 as normalization control. qRT-PCR of mRNAs of was performed using QuantiTect Primer Assays and QuantiFast SYBR Green RT-PCR Kit (Qiagen), with 18s rRNA as normalization control. […]"}, "HRECs": {"test_system": "HRECs", "experiment": "Leukocyte adhesion to HRECs", "assay_type": "cell-based, human", "conditions": "scrambled control-treated HRECs, thrombin treatment", "method": "Leukocyte adhesion to HRECs. Leukocyte adhesion assays were performed (Huang et al., 2007; O'Donnell, 2011) with minor modifications. Briefly, blood from healthy human volunteers was collected according to a approved IRB protocol to isolate leukocytes. Leukocytes were labeled with 5 μM Calcein/acetomethoxy (AM) (Invitrogen). HRECs were transfected with miR-146a mimics or negative control oligo duplex with scrambled sequences for 48 hours before thrombin treatment (5 U/ml). Eight hours after thrombin treatment, 10^5 calcein-labeled leukocytes were added onto the HREC monolayer and incubated for 2 hours at 37 C. Subsequently, the cells were gently rinsed with PBS to wash off leukocytes unattached to HRECs; the number of Calcein-AM labeled neutrophils attached to HRECs were counted by fluorescence microscopy. In addition, the fluorescence from the adherent leukocytes on HRECs was measured with a Cytofluor plate reader (PreSeptive Biosystems)."}, "[4]": {"conditions": "Bay11-7082 3 μM for 30 minutes prior to thrombin"}, "[5]": {"conditions": "HRECs treated with scrambled oligo"}}, "data": [{"compound": "Cc1ccc(S(=O)(=O)/C=C/C#N)cc1", "note": "[Bay11-7082]", "values": [{"measurement": "decrease of IL-1β-induced upregulation of miR-146a", "setting": "NF-κB [1]; rat RECs, IL-1β 10 ng/ml, simultaneous Bay11-7082", "value": "~81", "unit": "%"}, {"measurement": "TNF-α-induced upregulation of miR-146a", "setting": "NF-κB [1]; rat RECs, TNF-α 10 ng/ml, simultaneous Bay11-7082", "value": "completely blocked"}, {"measurement": "NF-κB activation (nuclear translocation of p65)", "setting": "NF-κB p65", "value": "failed to activate NF-κB"}, {"measurement": "IL-1β-induced decrease of TEER", "setting": "[2]; IL-1β 10 ng/ml", "value": "prevented"}, {"measurement": "inhibition of thrombin-induced miR-146b upregulation", "setting": "NF-κB [3]; [4]", "value": "at least 33%"}, {"measurement": "thrombin-induced upregulation of miR-146a", "setting": "NF-κB [3]; [4]", "value": "completely blocked"}]}, {"compound": "IL-1β: proinflammatory cytokine used at 10 ng/ml to activate NF-κB", "values": [{"measurement": "miR-146a expression", "setting": "NF-κB [1]", "value": "significantly upregulated"}, {"measurement": "NF-κB activation (nuclear translocation of p65)", "setting": "NF-κB p65", "value": "activated NF-κb"}, {"measurement": "TEER", "setting": "[2]; IL-1β treatment", "value": "significant decrease"}]}, {"compound": "TNF-α", "values": [{"measurement": "miR-146a expression", "setting": "NF-κB [1]", "value": "significantly upregulated"}, {"measurement": "NF-κB activation (nuclear translocation of p65)", "setting": "NF-κB p65", "value": "activated NF-κb"}]}, {"compound": "mmu-miR-30c (UGUAAACAUCCUACACUCUCAGC; chemistry not fully specified)", "values": [{"measurement": "AVE DCt (STZ)", "setting": "miRNAs in the vitreous", "value": 2.37}]}, {"compound": "thrombin", "values": [{"measurement": "upregulation of miR-146a", "setting": "NF-κB [3]; thrombin treatment", "value": 122, "unit": "%"}, {"measurement": "upregulation of miR-146b", "setting": "NF-κB [3]; thrombin treatment", "value": 92, "unit": "%"}, {"measurement": "induction of ICAM-1", "setting": "NF-κB activation; [5]", "value": "~17", "unit": "fold"}, {"measurement": "induction of VCAM-1", "setting": "NF-κB activation; [5]", "value": "~95", "unit": "fold"}, {"measurement": "NF-κB downstream genes ICAM1, MCP1 and VCAM1", "setting": "NF-κB activation; HRECs", "value": "significantly upregulated"}, {"measurement": "leukocyte adhesion", "setting": "HRECs", "value": "significantly increased"}]}]}
